What was measured:
[1] = test system: OVCAR-3; experiment: NCI single (10 µM) dose SRB screening, OVCAR-3; assay type: cell-based, human; details: 10 µM single dose, OVCAR-3, Ovarian cancer
Protocol: (§1) Following NCI protocol, sixteen MPCs were screened for their potential in vitro anticancer effects against human 59 cancer cell panels including prostate, leukaemia melanoma, colon, breast, CNS, renal, NSCLC, and ovarian cancers by National Cancer Institute (USA)[30].
(§2) The antiproliferative activities of MPC 3 and MPCs 5a–o were first evaluated in a 10 µM dose assay, with SRB assay used to determine cell survival and proliferation. […] The results of the cell growth inhibitory activities for MPCs 5g and 5l towards the different treated tumour cell lines were presented as GI% and presented in Table 3.
(§3) The anticancer test was conducted using the methods of the Drug Evaluation Branch, National Cancer Institute, Bethesda, MD, using 59 human tumour cell lines derived from nine human tissues. The GI50, TGI, and LC50 dose-response parameters were calculated for each medication.

[2] = test system: OVCAR-5; experiment: NCI single (10 µM) dose SRB screening, OVCAR-5; assay type: cell-based, human; details: 10 µM single dose, OVCAR-5, Ovarian cancer
Protocol: as §1, §2, §3

[3] = test system: HT29; experiment: NCI single (10 µM) dose SRB screening, HT29; assay type: cell-based, human; details: 10 µM single dose, HT29, Colon cancer
Protocol: as §1, §2, §3

[4] = test system: SF-268; experiment: NCI single (10 µM) dose SRB screening, SF-268; assay type: cell-based, human; details: 10 µM single dose, SF-268, CNS cancer
Protocol: as §1, §2, §3

[5] = test system: MDA-MB-435; experiment: NCI single (10 µM) dose SRB screening, MDA-MB-435; assay type: cell-based, human; details: 10 µM single dose, MDA-MB-435, Melanoma
Protocol: as §1, §2, §3

[6] = test system: MCF7; experiment: NCI single (10 µM) dose SRB screening, MCF7; assay type: cell-based, human; details: 10 µM single dose, MCF7, Breast cancer
Protocol: as §1, §2, §3

[7] = test system: UO-31; experiment: NCI single (10 µM) dose SRB screening, UO-31; assay type: cell-based, human; details: 10 µM single dose, UO-31, Renal cancer
Protocol: as §1, §2, §3

[8] = test system: A549/ATCC; experiment: NCI single (10 µM) dose SRB screening, A549/ATCC; assay type: cell-based, human; details: 10 µM single dose, NSC lung cancer
Protocol: as §1, §2, §3

[9] = test system: EKVX; experiment: NCI single (10 µM) dose SRB screening, EKVX; assay type: cell-based, human; details: 10 µM single dose, NSC lung cancer
Protocol: as §1, §2, §3

[10] = test system: HCT-116; experiment: NCI single (10 µM) dose SRB screening, HCT-116; assay type: cell-based, human; details: 10 µM single dose, HCT-116, Colon cancer
Protocol: as §1, §2, §3

[11] = test system: CAKI-1; experiment: NCI single (10 µM) dose SRB screening, CAKI-1; assay type: cell-based, human; details: 10 µM single dose, CAKI-1, Renal cancer
Protocol: as §1, §2, §3

[12] = test system: SR; experiment: NCI single (10 µM) dose SRB screening, SR; assay type: cell-based, human; details: 10 µM single dose, Leukaemia
Protocol: as §1, §2, §3

[13] = test system: IGROV1; experiment: NCI single (10 µM) dose SRB screening, IGROV1; assay type: cell-based, human; details: 10 µM single dose, IGROV1, Ovarian cancer
Protocol: as §1, §2, §3

[14] = test system: DU-145; experiment: NCI single (10 µM) dose SRB screening, DU-145; assay type: cell-based, human; details: 10 µM single dose, DU-145, Prostate cancer
Protocol: as §1, §2, §3

[15] = test system: 786-0; experiment: NCI single (10 µM) dose SRB screening, 786-0; assay type: cell-based, human; details: 10 µM single dose, 786-0, Renal cancer
Protocol: as §1, §2, §3

[16] = test system: HS 578 T; experiment: NCI single (10 µM) dose SRB screening, HS 578 T; assay type: cell-based, human; details: 10 µM single dose, Breast cancer
Protocol: as §1, §2, §3

[17] = test system: SNB-75; experiment: NCI single (10 µM) dose SRB screening, SNB-75; assay type: cell-based, human; details: 10 µM single dose, SNB-75, CNS cancer
Protocol: as §1, §2, §3

[18] = test system: NCI-H522; experiment: NCI single (10 µM) dose SRB screening, NCI-H522; assay type: cell-based, human; details: 10 µM single dose, NCI-H522, NSC lung cancer
Protocol: as §1, §2, §3

[19] = test system: MALME-3M; experiment: NCI single (10 µM) dose SRB screening, MALME-3M; assay type: cell-based, human; details: 10 µM single dose, Melanoma
Protocol: as §1, §2, §3

[20] = test system: HOP-92; experiment: NCI single (10 µM) dose SRB screening, HOP-92; assay type: cell-based, human; details: 10 µM single dose, HOP-92, NSC lung cancer
Protocol: as §1, §2, §3

[21] = test system: U251; experiment: NCI single (10 µM) dose SRB screening, U251; assay type: cell-based, human; details: 10 µM single dose, U251, CNS cancer
Protocol: as §1, §2, §3

[22] = test system: A498; experiment: NCI single (10 µM) dose SRB screening, A498; assay type: cell-based, human; details: 10 µM single dose, A498, Renal cancer
Protocol: as §1, §2, §3

[23] = test system: NCI-H322M; experiment: NCI single (10 µM) dose SRB screening, NCI-H322M; assay type: cell-based, human; details: 10 µM single dose, NSC lung cancer
Protocol: as §1, §2, §3

[24] = biological target: T1, hCA XII (Homo sapiens, UniProt O43570); experiment: stopped-flow CO2 hydrase assay, hCA XII; assay type: biochemical; details: for Selectivity index (SI) (KI off-target CA/KI target CA) Towards hCA XII: ratio of KI for hCA I and II relative to hCA XII; for Ki: stopped-flow, incubation time of 6 h, mean of three assays, read-out: KI CA XII
T1 construct: made in house
Protocol: The newly synthesised MPCs (3 and 5a–o) were assessed for their CA inhibition activity employing the stopped-flow CO2 hydrase assay[29] for constitutional hCA (I/II) isoforms and cancer-linked hCA (IX/XII) isoforms.
The CA inhibition activity for the herein reported MPC derivatives was evaluated against the hCA isoforms I, II, IX, and XII using stopped-flow CO2 hydrase test[7]^,[33–36] (see the Supplementary Material).
Carbonic anhydrase inhibition assay
The carbonic anhydrase catalyzed CO2 hydration actions for all coumarin-based […]
Photophysics stopped-flow. The enzymes are recombinant proteins prepared in our lab. Phenol red (at a concentration of 0.2 mM) has been used as indicator, working at […]
mM Na2SO4 (for maintaining constant the ionic strength), following the initial rates of the CA-catalyzed CO2 hydration reaction for a period of 10-100 s. The CO2 concentrations ranged from 1.7 to 17 mM for the determination of the kinetic parameters and inhibition constants. For each inhibitor at least six traces of the initial 5-10% of the reaction have been used for determining the initial velocity. The uncatalyzed rates were determined in the same manner and subtracted from the total observed rates. Stock solutions of inhibitor (0.1 mM) were prepared in distilled-deionized water and dilutions up to 0.01 nM were done thereafter with the assay buffer. Inhibitor and enzyme solutions were preincubated together for 6 hrs. at room temperature prior to assay, in order to allow for the formation of the E-I complex. The inhibition constants were obtained by non-linear least-squares methods using PRISM 3 and the Cheng-Prusoff equation, and represent the mean from at least three different

[25] = test system: HCT-15; experiment: NCI single (10 µM) dose SRB screening, HCT-15; assay type: cell-based, human; details: 10 µM single dose, HCT-15, Colon cancer
Protocol: as §1, §2, §3

[26] = test system: OVCAR-8; experiment: NCI single (10 µM) dose SRB screening, OVCAR-8; assay type: cell-based, human; details: 10 µM single dose, OVCAR-8, Ovarian cancer
Protocol: as §1, §2, §3

[27] = test system: LOX IMVI; experiment: NCI single (10 µM) dose SRB screening, LOX IMVI; assay type: cell-based, human; details: 10 µM single dose, Melanoma
Protocol: as §1, §2, §3

[28] = test system: SW-620; experiment: NCI single (10 µM) dose SRB screening, SW-620; assay type: cell-based, human; details: 10 µM single dose, SW-620, Colon cancer
Protocol: as §1, §2, §3

[29] = test system: ACHN; experiment: NCI single (10 µM) dose SRB screening, ACHN; assay type: cell-based, human; details: 10 µM single dose, Renal cancer
Protocol: as §1, §2, §3

T1 sequence (O43570 25-354): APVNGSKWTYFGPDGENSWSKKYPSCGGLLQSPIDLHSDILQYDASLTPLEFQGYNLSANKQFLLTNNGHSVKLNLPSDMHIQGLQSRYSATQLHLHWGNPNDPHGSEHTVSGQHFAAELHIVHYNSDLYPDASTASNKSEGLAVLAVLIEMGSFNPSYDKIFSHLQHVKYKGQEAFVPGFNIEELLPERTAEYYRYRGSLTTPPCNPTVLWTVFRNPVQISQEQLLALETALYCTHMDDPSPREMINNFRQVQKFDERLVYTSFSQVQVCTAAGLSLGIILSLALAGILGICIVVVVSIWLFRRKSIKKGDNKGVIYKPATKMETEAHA

| Compound | GI % [1] | GI % [2] | GI % [3] | GI % [4] | GI % [5] | GI % [6] | GI % [7] | GI % [8] | GI % [9] | GI % [10] | GI % [11] | GI % [12] | GI % [13] | GI % [14] | GI % [15] | GI % [16] | GI % [17] | GI % [18] | GI % [19] | GI % [20] | further results |
| --- | --- | --- | --- | --- | --- | --- | --- | --- | --- | --- | --- | --- | --- | --- | --- | --- | --- | --- | --- | --- | --- |
| Cc1nc(-c2cc3ccccc3oc2=O)ccc1C(=O)/C=C/c1ccccn1 [Compound 5l, 3-(6-Methyl-5-[(2E)-3-(pyridin-2-yl)prop-2-enoyl]pyridin-2-yl)-2H-chromen-2-one] | 53% | 39% | 97% | 21% | 29% | 91% | 41% | 33% | – (Only GI % more than 20% are displayed.) | 121% | 39% | 112% | 93% | 52% | 93% | – (Only GI % more than 20% are displayed.) | 43% | 41% | – (Only GI % more than 20% are displayed.) | – (Only GI % more than 20% are displayed.) | GI % [21]: 92%; GI % [22]: – (Only GI % more than 20% are displayed.); GI % [23]: – (Only GI % more than 20% are displayed.); Selectivity index (SI) (KI off-target CA/KI target CA) Towards hCA XII [24]: >108.70; Ki [24]: 920 nM; GI % [25]: 133%; GI % [26]: 30%; GI % [27]: 184%; GI % [28]: 98%; GI % [29]: 41% |
| Cc1nc(-c2cc3ccccc3oc2=O)ccc1C(=O)/C=C/c1ccc(N2CCOCC2)cc1 [Compound 5g, 3-(6-Methyl-5-[(2E)-3-[4-(morpholin-4-yl)phenyl]prop-2-enoyl]pyridin-2-yl)-2H-chromen-2-one] | – (Only GI % more than 20% are displayed.) | – (Only GI % more than 20% are displayed.) | – (Only GI % more than 20% are displayed.) | 24% | 121% | 48% | – (Only GI % more than 20% are displayed.) | – (Only GI % more than 20% are displayed.) | – (Only GI % more than 20% are displayed.) | – (Only GI % more than 20% are displayed.) | 34% | 73% | – (Only GI % more than 20% are displayed.) | – (Only GI % more than 20% are displayed.) | 24% | 40% | 41% | 38% | 42% | – (Only GI % more than 20% are displayed.) | GI % [21]: – (Only GI % more than 20% are displayed.); GI % [22]: 24%; GI % [23]: – (Only GI % more than 20% are displayed.); Selectivity index (SI) (KI off-target CA/KI target CA) Towards hCA XII [24]: >55.56; Ki [24]: 1800 nM; GI % [25]: 45%; GI % [26]: – (Only GI % more than 20% are displayed.); GI % [27]: 68%; GI % [28]: – (Only GI % more than 20% are displayed.); GI % [29]: 29% |

From article PMC9037210, “Novel 3-(6-methylpyridin-2-yl)coumarin-based chalcones as selective inhibitors of cancer-related carbonic anhydrases IX and XII endowed with anti-proliferative activity” (Journal of Enzyme Inhibition and Medicinal Chemistry, 2022)
